“And” between values parts separate entries of the source, which are not always exact repeats. Equal entries are not always repeated. Structures can show the parent of a compound that is named as a salt. Where two headings read alike, the source gives them in different places.
Key:
[1] = tested on: Androstenedione-Induced Uterus Growth; experiment: Influence on androstenedione-induced uterus growth in infantile rats (Test b); format: in vivo, rat; conditions: 3 days; for Uterus Weight: infantile female rats; for Inhibition in % (of uterus growth, based on the androstenedione group): vehicle basic value deducted
Procedure: (§1) The following compounds are examined as representative:
Influence on Androstenedione-Induced Uterus Growth in Infantile Rats
Infantile female rats receive once daily the compound to be tested in combination with androstenedione over a period of three days. One group receives only androstenedione, and a further group only the vehicle. One day after the last treatment, the animals are sacrificed by decapitation and exsanguination, and the fresh uterus weights (without content) are determined. The uterus weights are calculated for mg/100 g body weight. The average value and standard deviation are calculated for each group. Variance analysis is used to check the significances of the differences with respect to the control group (androstenedione group and, respectively, vehicle group). Furthermore, the percentage inhibition of uterus growth is determined, based on the androstenedione group. In this determination, the uterus weight of the vehicle group (basic value) is deducted from the corresponding weight of the androstenedione group. The individual dosage groups, after subtracting the basic value, are based on the thus-obtained value.

aromatase = biological target: T1, aromatase (Homo sapiens, UniProt P11511); experiment: Aromatase inhibition in human placenta (Test a): microsomes, release of 3H2O from [1β-3H]-androstenedione, Ki by Dixon plot; format: biochemical
T1 construct: microsomes obtained from human placenta; from tissue; host or cells: human placenta (microsomes)
T1 sequence (P11511 1-503): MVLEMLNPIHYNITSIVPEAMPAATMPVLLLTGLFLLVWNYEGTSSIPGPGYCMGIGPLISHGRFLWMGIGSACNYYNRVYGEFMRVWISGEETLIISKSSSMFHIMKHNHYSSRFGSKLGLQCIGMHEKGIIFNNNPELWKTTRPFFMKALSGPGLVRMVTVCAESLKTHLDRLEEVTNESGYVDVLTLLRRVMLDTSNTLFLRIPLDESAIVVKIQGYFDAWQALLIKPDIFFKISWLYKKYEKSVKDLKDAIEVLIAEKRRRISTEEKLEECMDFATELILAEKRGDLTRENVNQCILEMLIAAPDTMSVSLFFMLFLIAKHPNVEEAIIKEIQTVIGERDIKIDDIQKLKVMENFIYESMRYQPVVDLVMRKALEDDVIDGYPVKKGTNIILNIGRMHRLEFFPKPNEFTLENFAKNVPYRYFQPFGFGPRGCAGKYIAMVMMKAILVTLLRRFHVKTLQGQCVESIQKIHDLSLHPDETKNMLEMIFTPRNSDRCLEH
Procedure: as §1
Aromatase Inhibition in Human Placenta
The abilities of the compounds of inhibiting the enzyme system of aromatase is tested on microsomes obtained from human placenta.

[2] = compound + AD, 2.0 + 30 mg/kg/day
[3] = human placenta microsomes, [1β-3H]-androstenedione substrate, 4-OH-androstenedione as reference compound, read-out: Ki, Aromatase
[4] = compound + AD, 0.2 + 30 mg/kg/day, hydrochloride, 30 mg/kg/day
[5] = compound + AD, 0.2 + 30 mg/kg/day

| Compound | Uterus Weight [1, 2] [mg/100 g BW] | Inhibition in % (of uterus growth, based on the androstenedione group) [1, 2] [%] | Ki (aromatase; [3]) [nM] | further results |
| --- | --- | --- | --- | --- |
| N#Cc1ccc(C(=C2CCCCC2)n2ccnc2)cc1 [Compound B, 4-[1-Cyclohexylidene-1-(1-imidazolyl)methyl]benzonitrile] | 72.5 ± 10.3 | 82 | 0.48 |  |
| N#Cc1ccc(C2CCCc3cncn32)cc1 (racemic) [D, 5-(p-cyanophenyl)-5,6,7,8tetrahydroimidazo[-1,5a]pyridine, hydrochloride, reference compound] |  |  |  | Uterus Weight [1, 4]: 69.9 ± 6.6 mg/100 g BW and 83.2 ± 6.9 mg/100 g BW; Inhibition in % (of uterus growth, based on the androstenedione group) [1, 4]: 84% and 86% |
| N#Cc1ccc(C(=C2CCCC2)n2ccnc2)cc1 [C, 4-[1-Cyclopentylidene-1-(1-imidazolyl)methyl]benzonitrile] | 69.2 ± 5.7 | 85 |  |  |
| C[C@]12CCC(=O)C=C1CC[C@@H]1[C@@H]2CC[C@]2(C)C(=O)CC[C@@H]12 [Androstenedione, reference compound] |  |  |  | Uterus Weight ([1]; androstenedione (AD) alone 30 mg/kg/day): 213.6 ± 32.4 mg/100 g BW and 183.5 ± 22.7 mg/100 g BW |
| C[C@]12CCC(=O)C(O)=C1CC[C@@H]1[C@@H]2CC[C@]2(C)C(=O)CC[C@@H]12 [4-OH-Androstenedione, reference compound] |  |  |  | Ki (aromatase; Ki, Aromatase): 62 nM and 41 nM |
| Cl.N#Cc1ccc(C(=C2CCCCC2)n2ccnc2)cc1 [Compound A, 4-[1-Cyclohexylidene-1-(1-imidazolyl)methyl]benzonitrile, hydrochloride] | 100.1 ± 18.8 | 74 | 0.19 | Uterus Weight [1, 5]: 108.2 ± 11.9 mg/100 g BW; Inhibition in % (of uterus growth, based on the androstenedione group) [1, 5]: 69% |

Reference: patent US5135937A, “Cycloalkylene azoles and pharmaceutical preparations obtained therefrom” (Schering Aktiengesellschaft, priority 1989, dated 1992)
